# Assay: Solubility in oil (sesame oil, benzyl benzoate), visual observation
# Conditions: oil or lipid, thermodynamic from solid
# Protocol: Each of the Example compounds was examined for the solubility in oil (sesame oil, benzyl benzoate).
# For the specific gravity of an oil, the following values were applied. • sesame oil (specific gravity: 0.914-0.921) • benzyl benzoate (specific gravity: 1.123) • (Method)
# Example compound is measured in a microtube and an oil (sesame oil, or, benzyl benzoate) in an amount to make the concentration 10 mg/0.1 ml is added. After stirring, the solubility is evaluated by visual observation. When the compound is not dissolved, the mixture is heated, and the solubility is evaluated after cooling.
SMILES,solubility (benzyl benzoate) [mg/mL],solubility (sesame oil) [mg/mL]
"O=C(OCN1C(=O)CCc2ccc(OCCCCN3CCN(c4cccc5sccc45)CC3)cc21)c1ccoc1 [Example 96, furan-3-carboxylic acid 7-[4-(4-benzo[b]thiophen-4-ylpiperazin-1-yl)butoxy]-2-oxo-3,4-dihydro-2H-quinolin-1-ylmethyl ester]",> 100,
"CCCCCCCCCCOC(=O)OCN1C(=O)CC(C)(C)c2ccc(OCCCCN3CCN(c4cccc5sccc45)CC3)cc21 [Example 156, carbonic acid 7-[4-(4-benzo[b]thiophen-4-ylpiperazin-1-yl)-butoxy]-4,4-dimethyl-2-oxo-3,4-dihydro-2H-quinolin-1-ylmethyl ester decyl ester]",> 100,> 100
"CCNC(=O)OCn1c(=O)ccc2ccc(OCCCCN3CCN(c4cccc5sccc45)CC3)cc21 [Example 55, N-ethylcarbamic acid 7-[4-(4-benzo[b]thiophen-4-ylpiperazin-1-yl)butoxy]-2-oxo-2H-quinolin-1-ylmethyl ester]",> 100,
"CCCCOCCOCC(=O)OCN1C(=O)CCc2ccc(OCCCCN3CCN(c4cccc5sccc45)CC3)cc21 [Example 100, (2-butoxyethoxy)acetic acid 7-[4-(4-benzo[b]thiophen-4-ylpiperazin-1-yl)butoxy]-2-oxo-3,4-dihydro-2H-quinolin-1-ylmethyl ester]",> 100,
"O=C(OCN1C(=O)CCc2ccc(OCCCCN3CCN(c4cccc5sccc45)CC3)cc21)c1cccnc1 [Example 132, nicotinic acid 7-[4-(4-benzo[b]thiophen-4-ylpiperazin-1-yl)butoxy]-2-oxo-3,4-dihydro-2H-quinolin-1-ylmethyl ester]",> 100,
"C=CCNC(=O)OCn1c(=O)ccc2ccc(OCCCCN3CCN(c4cccc5sccc45)CC3)cc21 [Example 112, N-allylcarbamic acid 7-[4-(4-benzo[b]thiophen-4-ylpiperazin-1-yl)butoxy]-2-oxo-2H-quinolin-1-ylmethyl ester]",> 100,
"CCCCCCCCCC(=O)OCN1C(=O)CCc2ccc(OCCCCN3CCN(c4cccc5sccc45)CC3)cc21 [Example 68, decanoic acid 7-[4-(4-benzo[b]thiophen-4-ylpiperazin-1-yl)butoxy]-2-oxo-3,4-dihydro-2H-quinolin-1-ylmethyl ester]",> 100,
"CCCCCCCCCCCC(=O)Oc1ccc2ccc(OCCCCN3CCN(c4cccc5sccc45)CC3)cc2n1 [Example 379, 7-[4-(4-benzo[b]thiophen-4-yl-piperazin-1-yl)-butoxy]-quinolin-2-yl dodecanoate]",> 100,> 100
O=C(NCc1ccco1)OCn1c(=O)ccc2ccc(OCCCCN3CCN(c4cccc5sccc45)CC3)cc21 [Example 110],> 100,
"O=C(OCn1c(=O)ccc2ccc(OCCCCN3CCN(c4cccc5sccc45)CC3)cc21)C1CCC1 [Example 136, cyclobutanecarboxylic acid 7-[4-(4-benzo[b]thiophen-4-ylpiperazin-1-yl)butoxy]-2-oxo-2H-quinolin-1-ylmethyl ester]",> 100,
"CCCCCC(CCCCC)C(=O)OCn1c(=O)ccc2ccc(OCCCCN3CCN(c4cccc5sccc45)CC3)cc21 [Example 54, 2-pentylheptanoic acid 7-[4-(4-benzo[b]thiophen-4-ylpiperazin-1-yl)butoxy]-2-oxo-2H-quinolin-1-ylmethyl ester]",> 100,
"CCCCCCCCCOC(=O)OCn1c(=O)ccc2ccc(OCCCCN3CCN(c4cccc5sccc45)CC3)cc21 [Example 177, carbonic acid 7-[4-(4-benzo[b]thiophen-4-ylpiperazin-1-yl)butoxy]-2-oxo-2H-quinolin-1-ylmethyl ester nonyl ester]",> 100,> 100
"CCCCCCCCCCCC(=O)OCOc1ccc2ccc(OCCCCN3CCN(c4cccc5sccc45)CC3)cc2n1 [Example 371, 7-[4-(4-benzo[b]thiophen-4-yl-piperazin-1-yl)-butoxy]-quinolin-2-yloxymethyl dodecanoate]",> 100,
"CCCCCCCCCCNC(=O)OCN1C(=O)CCc2ccc(OCCCCN3CCN(c4cccc5sccc45)CC3)cc21 [Example 17, N-decylcarbamic acid 7-[4-(4-benzo[b]thiophen-4-ylpiperazin-1-yl)butoxy]-2-oxo-3,4-dihydro-2H-quinolin-1-ylmethyl ester]",> 100,> 100
"O=C(OCN1C(=O)CCc2ccc(OCCCCN3CCN(c4cccc5sccc45)CC3)cc21)C1CCCCC1 [Example 14, cyclohexanecarboxylic acid 7-[4-(4-benzo[b]thiophen-4-ylpiperazin-1-yl)butoxy]-2-oxo-3,4-dihydro-2H-quinolin-1-ylmethyl ester]",> 100,
O=C(NCc1ccccn1)OCn1c(=O)ccc2ccc(OCCCCN3CCN(c4cccc5sccc45)CC3)cc21 [Example 113],> 100,
"CCCCOC(=O)OCn1c(=O)ccc2ccc(OCCCCN3CCN(c4cccc5sccc45)CC3)cc21 [Example 168, carbonic acid 7-[4-(4-benzo[b]thiophen-4-ylpiperazin-1-yl)butoxy]-2-oxo-2H-quinolin-1-ylmethyl ester butyl ester]",> 100,
"CC(C)(C)C(=O)OCn1c(=O)ccc2ccc(OCCCCN3CCN(c4cccc5sccc45)CC3)cc21 [Example 18, 2,2-dimethylpropionic acid 7-[4-(4-benzo[b]thiophen-4-ylpiperazin-1-yl)butoxy]-2-oxo-2H-quinolin-1-ylmethyl ester]",> 100,
"CCCCCCCCCCOC(=O)OCN1C(=O)CCc2ccc(OCCCCN3CCN(c4cccc5sccc45)CC3)cc21 [Example 142, carbonic acid 7-[4-(4-benzo[b]thiophen-4-ylpiperazin-1-yl)butoxy]-2-oxo-3,4-dihydro-2H-quinolin-1-ylmethyl ester decyl ester]",> 100,> 100
"CCCCC(C)C(=O)OCn1c(=O)ccc2ccc(OCCCCN3CCN(c4cccc5sccc45)CC3)cc21 (stereo not drawn) [Example 88, 2-methylhexanoic acid 7-[4-(4-benzo[b]thiophen-4-ylpiperazin-1-yl)butoxy]-2-oxo-2H-quinolin-1-ylmethyl ester]",> 100,
"CCCCCCOC(=O)OCOc1ccc2ccc(OCCCCN3CCN(c4cccc5sccc45)CC3)cc2n1 [Example 373, 7-[4-(4-benzo[b]thiophen-4-yl-piperazin-1-yl)-butoxy]-quinolin-2-yloxymethylhexyl carbonate]",> 100,> 100
"CCCCCCCCCCCCCCCCC(=O)OCn1c(=O)ccc2ccc(OCCCCN3CCN(c4cccc5sccc45)CC3)cc21 [Example 108, heptadecanoic acid 7-[4-(4-benzo[b]thiophen-4-ylpiperazin-1-yl)butoxy]-2-oxo-2H-quinolin-1-ylmethyl ester]",> 100,
"C=CCCCCCCCCC(=O)OCn1c(=O)ccc2ccc(OCCCCN3CCN(c4cccc5sccc45)CC3)cc21 [Example 74, undec-10-enoic acid 7-[4-(4-benzo[b]thiophen-4-ylpiperazin-1-yl)butoxy]-2-oxo-2H-quinolin-1-ylmethyl ester]",> 100,
"CCOC(=O)OCN1C(=O)CCc2ccc(OCCCCN3CCN(c4cccc5sccc45)CC3)cc21 [Example 49, carbonic acid 7-[4-(4-benzo[b]thiophen-4-ylpiperazin-1-yl)butoxy]-2-oxo-3,4-dihydro-2H-quinolin-1-ylmethyl ester ethyl ester]",> 100,

# — US9539252B2, “Piperazine-substituted benzothiophene derivatives as antipsychotic agents” (OTSUKA PHARMACEUTICAL CO., LTD., priority 2011, dated 2017)
